Measured values published in patent EP4667466A1, “PROTAC DEGRADERS OF MLLT1 AND/OR MLLT3” (priority 2024, dated 2025).

Target: T1, MLLT1 (Homo sapiens, UniProt Q03111)
T1 construct: endogenous in cells; host or cells: MV4-11 (ATCC CRL-9591)
T1 sequence (Q03111 1-559): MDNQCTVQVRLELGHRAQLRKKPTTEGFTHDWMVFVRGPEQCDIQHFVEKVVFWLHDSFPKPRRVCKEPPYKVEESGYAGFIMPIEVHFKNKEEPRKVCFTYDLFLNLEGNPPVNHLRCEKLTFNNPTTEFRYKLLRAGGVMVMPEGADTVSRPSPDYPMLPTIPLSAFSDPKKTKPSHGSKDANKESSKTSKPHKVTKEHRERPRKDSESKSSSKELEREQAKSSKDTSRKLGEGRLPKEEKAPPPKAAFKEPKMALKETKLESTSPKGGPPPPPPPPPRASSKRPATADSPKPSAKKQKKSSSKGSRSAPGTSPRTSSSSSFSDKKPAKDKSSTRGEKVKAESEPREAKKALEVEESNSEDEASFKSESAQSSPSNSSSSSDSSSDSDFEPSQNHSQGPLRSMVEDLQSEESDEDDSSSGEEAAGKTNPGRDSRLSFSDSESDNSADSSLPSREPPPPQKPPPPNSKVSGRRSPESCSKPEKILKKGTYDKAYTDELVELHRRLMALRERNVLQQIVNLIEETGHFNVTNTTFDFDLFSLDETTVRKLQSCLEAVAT
Assay: MLLT1 degradation assay (JESS automated chemiluminescent detection) in MV4-11 cells
Assay type: cell-based
Settings: 24h, with respect to DMSO control
Description: MLLT1 degradation efficacy of compounds was tested in an automated chemiluminescent detection system (JESS, Cat# 004-650). MV4-11 (#CRL-9591, ATCC) cells were seeded at a density of 1.2 million cells/well in a non-treated 6-well cell culture plate in 2.4 mL of complete medium (IMDM + 10% FBS + 1X Penicillin-Streptomycin). 10 mM DMSO stocks were prepared, and cells were treated with three concentrations of test compounds viz. 1000, 100 and 10 nM at a final DMSO concentration of 0.1% and incubated for 24h at 37°C, 5% CO2. Post incubation, cells were centrifuged, washed with HBSS and lysed in 70 uL of RIPA buffer supplemented with Protease inhibitors (sc-24948; Santa Cruz). Subsequently, protein estimation was done using BCA protein assay kit (23225; Pierce). 4 ug protein lysate (4 uL of 1ug/uL lysate) was loaded into each well of the JESS cartridge (SM-WO01; Bio-techne) and the JESS run was performed using 1:900 dilution of anti-human MLLT1 antibody (14893; Cell signaling technology) and 1:1200 dilution of anti-human GAPDH antibody (2118; Cell signaling technology) with anti-rabbit secondary detection module (DM-001; Bio-Techne). Post run, data were analysed using "Compass for SW" software for chemiluminescent detection. The peak area for each band was used for the calculation of MLLT1 degradation with respect to DMSO control. Data is shown as "MLLT1 % degradation". Category A: A ≥ 75% degradation Category B: 50% ≤ B < 75% degradation Category C: 25% ≤ C < 50% degradation Category D: D < 25% degradation Table 1

inhibition at 0.01 µM	inhibition at 0.1 µM	inhibition at 1 µM	Compound
25 to 50%	50 to 75%	≥ 75%	Cc1nn(CCCCCCCC#Cc2cccc(C(=O)N[C@H]3CCC(=O)NC3=O)c2F)c2cc(C(=O)Nc3cc4[nH]c([C@H]5CCCN5C)cc4cn3)ccc12 [Example 51, 1-(9-(3-(((S)-2,6-dioxopiperidin-3-yl)carbamoyl)-2-fluorophenyl)non-8-yn-1-yl)-3-methyl-N-(2-((R)-1-methylpyrrolidin-2-yl)-1H-pyrrolo[3,2-c]pyridin-6-yl)-1H-indazole-6-carboxamide]
≥ 75%	≥ 75%	≥ 75%	Cc1nn(CCCCCCCC#Cc2ccc(F)c3c2CN(C2CCC(=O)NC2=O)C3=O)c2cc(C(=O)Nc3cc4[nH]c([C@H]5CCCN5C)cc4cn3)ccc12 (stereo partly drawn) [Example 52, 1-(9-(2-(2,6-dioxopiperidin-3-yl)-7-fluoro-1-oxoisoindolin-4-yl)non-8-yn-1-yl)-3-methyl-N-(2-((R)-1-methylpyrrolidin-2-yl)-1H-pyrrolo[3,2-c]pyridin-6-yl)-1H-indazole-6-carboxamide]
≥ 75%	≥ 75%	≥ 75%	Cc1nn(CCCCCCCC#Cc2cccc3c2CN(C2CCC(=O)NC2=O)C3=O)c2cc(C(=O)Nc3cc4[nH]c([C@H]5CCCN5C)c(Cl)c4cn3)ccc12 (stereo partly drawn) [Example 53, N-(3-chloro-2-((R)-1-methylpyrrolidin-2-yl)-1H-pyrrolo[3,2-c]pyridin-6-yl)-1-(9-(2-(2,6-dioxopiperidin-3-yl)-1-oxoisoindolin-4-yl)non-8-yn-1-yl)-3-methyl-1H-indazole-6-carboxamide]
≥ 75%	≥ 75%	≥ 75%	Cc1nn(CCCCCCCCC#Cc2cccc3c2CN(C2CCC(=O)NC2=O)C3=O)c2cc(C(=O)Nc3cc4[nH]c([C@H]5CCCN5C)cc4cn3)ccc12 (stereo partly drawn) [Example 54, 1-(10-(2-(2,6-dioxopiperidin-3-yl)-1-oxoisoindolin-4-yl)dec-9-yn-1-yl)-3-methyl-N-(2-((R)-1-methylpyrrolidin-2-yl)-1H-pyrrolo[3,2-c]pyridin-6-yl)-1H-indazole-6-carboxamide]
50 to 75%	≥ 75%	≥ 75%	CN1CCC[C@@H]1c1cc2cnc(NC(=O)c3ccc4cnn(CCCCCCCC#Cc5cccc6c5CN(C5CCC(=O)NC5=O)C6=O)c4c3)cc2[nH]1 (stereo partly drawn) [Example 55, 1-(9-(2-(2,6-dioxopiperidin-3-yl)-1-oxoisoindolin-4-yl)non-8-yn-1-yl)-N-(2-((R)-1-methylpyrrolidin-2-yl)-1H-pyrrol[3,2-c]pyridin-6-yl)-1H-indazole-6-carboxamide]
≥ 75%	≥ 75%	≥ 75%	Cc1c([C@H]2CCCN2C)[nH]c2cc(NC(=O)c3ccc4c(C)nn(CCCCCCCC#Cc5cccc6c5CN(C5CCC(=O)NC5=O)C6=O)c4c3)ncc12 (stereo partly drawn) [Example 57, 1-(9-(2-(2,6-dioxopiperidin-3-yl)-1-oxoisoindolin-4-yl)non-8-yn-1-yl)-3-methyl-N-(3-methyl-2-((R)-1-methylpyrrolidin-2-yl)-1H-pyrrolo[3,2-c]pyridin-6-yl)-1H-indazole-6-carboxamide]
≥ 75%	≥ 75%	≥ 75%	Cc1nn(CCCCCCCC#Cc2cccc3c2CN(C2CCC(=O)NC2=O)C3=O)c2cc(C(=O)Nc3cc4[nH]c([C@H]5CCCN5C)cc4cn3)c(F)cc12 (stereo partly drawn) [Example 58, 1-(9-(2-(2,6-dioxopiperidin-3-yl)-1-oxoisoindolin-4-yl)non-8-yn-1-yl)-5-fluoro-3-methyl-N-(2-((R)-1-methylpyrrolidin-2-yl)-1H-pyrrolo[3,2-c]pyridin-6-yl)-1H-indazole-6-carboxamide]
≥ 75%	≥ 75%	≥ 75%	CN1CCC[C@@H]1c1cc2cnc(NC(=O)c3ccc4c(C5CC5)nn(CCCCCCCC#Cc5cccc6c5CN(C5CCC(=O)NC5=O)C6=O)c4c3)cc2[nH]1 (stereo partly drawn) [Example 59, 3-cyclopropyl-1-(9-(2-(2,6-dioxopiperidin-3-yl)-1-oxoisoindolin-4-yl)non-8-yn-1-yl)-N-(2-((R)-1-methylpyrrolidin-2-yl)-1H-pyrrolo [3,2-c]pyridin-6-yl)-1H-indazole-6-carboxamide]
25 to 50%	50 to 75%	≥ 75%	Cc1nn(CCCCCCCC#Cc2cc3c(cc2F)C(=O)N(C2CCC(=O)NC2=O)C3)c2cc(C(=O)Nc3cc4[nH]c([C@H]5CCCN5C)cc4cn3)ccc12 (stereo partly drawn) [Example 60, 1-(9-(2-(2,6-dioxopiperidin-3-yl)-6-fluoro-1-oxoisoindolin-5-yl)non-8-yn-1-yl)-3-methyl-N-(2-((R)-1-methylpyrrolidin-2-yl)-1H-pyrrolo[3,2-c]pyridin-6-yl)-1H-indazole-6-carboxamide]
25 to 50%	≥ 75%	≥ 75%	Cc1nn(CCCCCCCC#Cc2cccc(C3CCC(=O)NC3=O)c2F)c2cc(C(=O)Nc3cc4[nH]c([C@H]5CCCN5C)cc4cn3)ccc12 (stereo partly drawn) [Example 61, 1-(9-(3-(2,6-dioxopiperidin-3-yl)-2-fluorophenyl)non-8-yn-1-yl)-3-methyl-N-(2-((R)-1-methylpyrrolidin-2-yl)-1H-pyrrolo [3,2-c]pyridin-6-yl)-1H-indazole-6-carboxamide]
50 to 75%	50 to 75%	≥ 75%	Cc1nn(CCCCCCCC#Cc2cccc(C3CCC(=O)NC3=O)n2)c2cc(C(=O)Nc3cc4[nH]c([C@H]5CCCN5C)cc4cn3)ccc12 (stereo partly drawn) [Example 62, 1-(9-(6-(2,6-dioxopiperidin-3-yl)pyridin-2-yl)non-8-yn-1-yl)-3-methyl-N-(2-((R)-1-methylpyrrolidin-2-yl)-1H-pyrrolo [3,2-c]pyridin-6-yl)-1H indazole-6-carboxamide]
< 25%	50 to 75%	≥ 75%	Cc1nn(CCCCCCCC#Cc2cccc(N3CCC(=O)NC3=O)c2F)c2cc(C(=O)Nc3cc4[nH]c([C@H]5CCCN5C)cc4cn3)ccc12 [Example 63, (R)-1-(9-(3-(2,4-dioxotetrahydropyrimidin-1(2H)-yl)-2-fluorophenyl)non-8-yn-1-yl)-3-methyl-N-(2-(1-methylpyrrolidin-2-yl)-1H-pyrrolo [3,2-c]pyridin-6-yl)-1H-indazole-6-carboxamide]
25 to 50%	50 to 75%	≥ 75%	Cc1nn(CCCCCCCC#Cc2cc3c(cc2F)c(N2CCC(=O)NC2=O)nn3C)c2cc(C(=O)Nc3cc4[nH]c([C@H]5CCCN5C)cc4cn3)ccc12 [Example 65, (R)-1-(9-(3-(2,4-dioxotetrahydropyrimidin-1(2H)-yl)-5-fluoro-1-methyl-1H-indazol-6-yl)non-8-yn-1-yl)-3-methyl-N-(2-(1-methylpyrrolidin-2-yl)-1H-pyrrolo[3,2-c]pyridin-6-yl)-1H-indazole-6-carboxamide]
≥ 75%	≥ 75%	≥ 75%	Cc1nn(CCCCCCCC#Cc2cccc3c2CN(C2CCC(=O)NC2=O)C3=O)c2cc(C(=O)Nc3cc4[nH]c([C@H]5CCCN5C)c(C#N)c4cn3)ccc12 (stereo partly drawn) [Example 66, N-(3-cyano-2-((R)-1-methylpyrrolidin-2-yl)-1H-pyrrolo[3,2-c]pyridin-6-yl)-1-(9-(2-(2,6-dioxopiperidin-3-yl)-1-oxoisoindolin-4-yl)non-8-yn-1-yl)-3-methyl-1H-indazole-6-carboxamide]
≥ 75%	≥ 75%	≥ 75%	Cc1nn(CCCCCCCC#Cc2ccc(F)c3c2CN(C2CCC(=O)NC2=O)C3=O)c2cc(C(=O)Nc3cc4[nH]c([C@H]5CCCN5C)c(Cl)c4cn3)ccc12 (stereo partly drawn) [Example 67, N-(3-chloro-2-((R)-1-methylpyrrolidin-2-yl)-1H-pyrrolo[3,2-c]pyridin-6-yl)-1-(9-(2-(2,6-dioxopiperidin-3-yl)-7-fluoro-1-oxoisoindolin-4-yl)non-8-yn-1-yl)-3-methyl-1H indazole-6-carboxamide]
